Read-outs that look alike come from different tables or passages of the source.
Legend:
SCC-15 tumours [1] = details: Xenogeneic Model
Protocol: Prior to inoculation of subject mice, the cancer cells were seeded to T175 tissue culture flasks (Thermo Scientific) to increase cell numbers. Once 70-80% confluent, cells were trypsinized and resuspended in RPMI-1640 media for harvesting and cell count using a haemocytometer. The cell volume was centrifuged and the pellet reconstituted in RPMI-1640 media to a volume sufficient for the number of inoculations required at 100 μL per injection with two sites per mouse subject. The cell suspension was kept on ice and transferred to the animal facility for injection into the subjects.
The BALB/c Foxn1^nu mice were obtained from the Animal Resource Centre, Western Australia. The C3H/HeNCr mice were bred at the QIMR Animal Facility.
C3H/HeNCr mice were shaved (Wahl, Illinois, USA) one day before inoculation. Whilst restrained subjects were inoculated on the hind quarter bilaterally by injecting 100 μL of the appropriate cell suspension into the subcutaneous space with a Terumo® (Tokyo, Japan) 27G×½″ needle. Subjects were ear tagged for identification. Following inoculation, mice were monitored twice weekly for tumour development and well-being and once tumours developed, the subjects were monitored daily.
A cohort of thirty BALB/c Foxn1^nu and twenty-one C3H/HeNCr mice, each with two tumours per mouse were divided into six experimental groups as set out in Table 2.
Weight was recorded for each subject prior to and post-treatment, and at the time of culling. The width and length of each tumour was measured using 150 mm digital Vernier callipers (Kinchrome, Qld, AU) and individual tumour volume (mm^3) calculated using the formula:
IP injections were performed by first sterilizing the anterior abdominal wall of the subject with an alcohol swab before the dorsal skin of the subject was scruffed and the subject inverted with head down. A 29 G needle with the bevel upwards is used to inject into the lower right abdominal quadrant. […]
Tumour volume was recorded as above. […]
Data was analysed with Microsoft Excel and Prism 7 to calculate average tumour volumes and standard deviations (SD). […]

UV-13-1 tumours = details: for Median Survival: Syngeneic Model
MC38 tumours = MC38 tumours in C57BL/6 syngeneic mouse model, intratumoural Compound 1 and external beam irradiation; format: in vivo; details: for Median Survival: Syngeneic Model
Protocol: The MC38 cell line is a murine colonic adenocarcinoma cell line derived from the C57BL/6 mouse (Kerafast, ENH204).
(§1) Subjects were ear tagged for identification.
Adequate positioning was ensured with the irradiator (Gammacel 40 Extractor) by sedating each mouse with a combination solution of Ketamine (80 mg/kg of 8 mg/mL solution, Ceva, NSW, AU) and Midazolam (4 mg/kg of 0.4 mg/mL solution, Sandoz, Hozkirchen, Germany) via intraperitoneal injection. Mice were double contained during transfer to and from the irradiator. During irradiation, mice were restrained with lead shielding to prevent exposure to sites other than the flanks where the tumours were located. […] On completion of treatment, mice were warmed with a heating blanket, placed on their side, and observed until ambulant.
(§2) Tumour volume was recorded as above.

B16-F10-OVA tumours = assay: B16-F10-OVA mouse melanoma tumours in C57BL/6 mice, intratumoural Compound 1 and intraperitoneal doxorubicin
Protocol: (§3) B16-F10-OVA (B16-F10 mouse melanoma cell line overexpressing chicken ovalbumin) were cultured in RPMI-1640 supplemented with 10% FCS (complete medium) and 3 mM HEPES. LLC (Lewis Lung Carcinoma) cells were cultured in DMEM (Gibco) supplemented with 10% FCS. Both cell lines were incubated at 37° C., 5% CO2 in a humidified incubator.
(§4) C57BL/6 mice were purchased from the Animal Resources Centre (ARC), Murdoch, Western Australia. […] All mice were housed in a specific pathogen free (SPF) facility, with 12 hours light/dark cycle and continual access to food and water.
C57BL/6 mice (6-7 weeks old) were injected subcutaneously (s.c.) on both flanks with B16-F10-OVA mouse melanoma cells (2×10^5 cells per site in 50 μl) or LLC mouse lung cancer cells (5×10^5 cells per site in 50 μl). Tumours were allowed to develop to approximately 75-100 mm^3. Mice were then treated intra-peritoneally with doxorubicin in saline (3 mg/kg; 60 μg/dose, saline for vehicle). […] Treatment with the chemotherapy agent was repeated after 7 and 14 days. For the B16-F10-OVA model, 5 mice per group (10 tumours) were used in duplicate experiments (total of 10 mice per group, 20 tumours in total from both experiments). For the LLC tumour model, 5 mice per group were used in a single experiment (10 tumours).
Volumes were recorded using digital calipers and expressed as mm^3 according to the formula A×b×b×0.5 where A=length and b=measured breadth of the tumour. Mice were also assessed for clinical signs of distress according to an approved clinical score sheet during the experiment. The experiment ceased when an unacceptable clinical score (>6) was reached, or the cumulative tumour burden of the mouse exceeded 1,000 mm^3. […] Mice were humanely euthanized by CO2 asphyxiation at the end of the experiment.

LLC tumours = assay: Lewis Lung Carcinoma (LLC) tumours in C57BL/6 mice, intratumoural Compound 1 and intraperitoneal doxorubicin; format: in vivo, mouse
Protocol: as §3, §4
C57BL/6 mice (6-7 weeks old) were injected subcutaneously (s.c.) on both flanks with B16-F10-OVA mouse melanoma cells (2×10^5 cells per site in 50 μl) or LLC mouse lung cancer cells (5×10^5 cells per site in 50 μl). Tumours were allowed to develop to approximately 75-100 mm^3. Mice were then treated intra-peritoneally with doxorubicin in saline (3 mg/kg; 60 μg/dose, saline for vehicle). […] Treatment with the chemotherapy agent was repeated after 7 and 14 days. […]
Volumes were recorded using digital calipers and expressed as mm^3 according to the formula A×b×b×0.5 where A=length and b=measured breadth of the tumour. Mice were also assessed for clinical signs of distress according to an approved clinical score sheet during the experiment. […]

SCC-15 cells = details: for Combination Index at IC50, Irradiation: with irradiation; for relationship by Chou-Talalay combination index method: Compound 1 with irradiation
Protocol: (§5) Cells were seeded at 3000 cells/well in 100 μL of medium in flat bottom 96 well cell culture plates (Corning Incorporated, New York, USA). Cells were incubated for 24 hr to ensure plate adherence prior to treatment.
(§6) One in two dilutions were then performed down the plate leaving the last row as an untreated control.
(§7) Each cell line was treated with each agent in triplicate with data being averaged across the three trials.
(§8) For single agent experiments, wells included no treatment and ethanol treatment controls. Following treatment, cells were incubated for 4 hours prior to washing with PBS and replacement of medium.
(§9) Following incubation of treated cells for 5-7 days, cell survival was determined using a sulforhodamine B (SRB) proliferation assay. This assay quantitatively assesses the degree of protein staining as a surrogate marker for cellular growth. Cells were washed with PBS and subsequently fixed with methylated spirits (Chem Supply, South Australia) for at least five minutes. Following fixation, the methylated spirits was removed and cells again washed gently with water prior to staining with 50 μL/well of 0.4% SRB solution (Sigma Aldrich) in 1% acetic acid for sixty minutes. This solution was tipped off and cells quickly washed twice with 1% acetic acid. The assay was completed with administration of 100 μL/well of 10 mM Tris base (unbuffered, pH >9, Invitrogen). Absorbance was measured on an enzyme-linked immunosorbent assay (ELISA) reader (VERSA max microplate reader, Molecular Devices, California, USA) at 564 nm and a five second agitation. Cell survival was graphed as a percentage of control well absorbance against dose.
(§10) Analysis was performed using the software program Combusyn.
(§11) As for the single agent experimentation, the cell lines were maintained in culture before their eventual transfer to 96-well plates. […] Cell survival was determined relative to no-treatment controls after 7 days of incubation using SRB assays.

SCC-15 tumours [2] = assay: SCC-15 tumours in BALB/c Foxn1^nu xenogeneic mouse model, intratumoural Compound 1 and external beam irradiation; format: in vivo; details: for Median Survival: Xenogeneic Model
Protocol: as §1
Adequate positioning was ensured with the irradiator (Gammacel 40 Extractor) by sedating each mouse with a combination solution of Ketamine (80 mg/kg of 8 mg/mL solution, Ceva, NSW, AU) and Midazolam (4 mg/kg of 0.4 mg/mL solution, Sandoz, Hozkirchen, Germany) via intraperitoneal injection. Mice were double contained during transfer to and from the irradiator. During irradiation, mice were restrained with lead shielding to prevent exposure to sites other than the flanks where the tumours were located.
as §2

A431 cells = details: for Combination Index at IC50, Irradiation: with irradiation
Protocol: as §5, §6, §7, §8, §9, §10, §11

[3] = IP cisplatin 2.5 mg/kg + IT 40% PG
[4] = 5 Gy irradiation + IT 7.5 μg Compound 1
[5] = 10 Gy irradiation + IT 7.5 μg Compound 1
[6] = syngeneic model, 5 Gy irradiation + 7.5 μg IT Compound 1
[7] = syngeneic model, 10 Gy irradiation + 7.5 μg IT Compound 1
[8] = IP N/Saline + IT 5 μg Compound 1
[9] = IP N/Saline + IT 10 μg Compound 1
[10] = 5 μg or 10 μg Compound 1, p<0.0001
[11] = intraperitoneal doxorubicin 3 mg/kg + intralesional 40% PG/30 mM acetate

N.N.[Cl][Pt][Cl] [cisplatin, reference compound]
Median Survival (SCC-15 tumours [1]; [3]): 11 days | Median Survival (UV-13-1 tumours; [3]): 12 days

C/C=C(\C)C(=O)O[C@@H]1[C@@H](C)[C@@]2(O)[C@H]([C@@H]3C(C)(C)[C@]13OC(=O)[C@@H](C)CC)[C@@H]1O[C@]1(CO)[C@@H](O)[C@]1(O)C(=O)C(C)=C[C@H]12 [Compound 1, 12-tigloyl-13-(2-methylbutanoyl)-6,7-epoxy-4,5,9,12,13,20-hexahydroxy-1-tiglien-3-one]
Median Survival (MC38 tumours; 0 Gy + IT 7.5 μg Compound 1): 13 days | Median Survival (MC38 tumours; [4]): 31 days | Median Survival (MC38 tumours; [5]): 47 days | cure rate (MC38 tumours; syngeneic model, 7.5 μg IT Compound 1 alone): 70% | survival at experiment end (MC38 tumours; [6]): 20% | tumours that remained cured at 200 days following treatment (MC38 tumours; [6]): two | survival at experiment end (MC38 tumours; [7]): 20% | tumours that remained cured at 200 days following treatment (MC38 tumours; [7]): two | cure rate (proportion of tumours responding completely) (MC38 tumours; syngeneic model, Compound 1 and 5 Gy irradiation): 100% | cure rate (proportion of tumours responding completely) (MC38 tumours; syngeneic model, Compound 1 and 10 Gy irradiation): 100% | duration of treatment response (MC38 tumours; syngeneic model, Compound 1 monotherapy): 6.2 days | duration of treatment response (MC38 tumours; syngeneic model, Compound 1 with 5 Gy irradiation): 64.6 days | duration of treatment response (MC38 tumours; syngeneic model, Compound 1 with 10 Gy irradiation): 65.9 days | improvement of duration of treatment response over monotherapy (MC38 tumours; syngeneic model, Compound 1 with irradiation, either 5 Gy or 10 Gy): ≥ 8.7 × | tumour response (individual and average tumour volumes) (MC38 tumours; syngeneic model, combinations of Compound 1 and irradiation): considerably improved tumour response | Median Survival (SCC-15 tumours [1]; [8]): 11 days | Median Survival (SCC-15 tumours [1]; [9]): 13 days | tumour growth and overall survival compared to vehicle alone (B16-F10-OVA tumours; [10]): slowed tumour growth and prolonged overall survival | tumours completely ablated (B16-F10-OVA tumours; saline/10 μg Compound 1 group): 4/20 | tumour growth and overall survival compared to vehicle alone (LLC tumours; [10]): slowed tumour growth and prolonged overall survival | Combination Index at IC50, Irradiation (SCC-15 cells; Compound 1 concentration 2 μM): 0.15 | Combination Index at IC50, Irradiation (SCC-15 cells; Compound 1 concentration 20 μM): 2.1 | Combination Index at IC50, Irradiation (SCC-15 cells; Compound 1 concentration 40 μM): 1.75 | Combination Index at IC50, Irradiation (SCC-15 cells; Compound 1 concentration 60 μM): 1.34 | relationship by Chou-Talalay combination index method (SCC-15 cells; at low concentrations): synergistic | relationship by Chou-Talalay combination index method (SCC-15 cells; some combination indices (CI >1)): consistent with antagonism | cell survival (SCC-15 cells; exposure to Compound 1 and irradiation): pronounced fall in cell survival | Median Survival (SCC-15 tumours [2]; 0 Gy + IT 7.5 μg Compound 1): 22 days | Median Survival (SCC-15 tumours [2]; [4]): 32 days | Median Survival (SCC-15 tumours [2]; [5]): 166 days | cure rate (SCC-15 tumours [2]; xenogeneic model, 7.5 μg IT Compound 1 alone): 70% | survival rate at 200 days (SCC-15 tumours [2]; xenogeneic model, 5 Gy irradiation + 7.5 μg IT Compound 1): 20% | survival rate at 200 days (SCC-15 tumours [2]; xenogeneic model, 10 Gy irradiation + 7.5 μg IT Compound 1): 50% | cure rate (proportion of tumours responding completely) (SCC-15 tumours [2]; xenogeneic model, Compound 1 and 5 Gy irradiation): 80% | cure rate (proportion of tumours responding completely) (SCC-15 tumours [2]; xenogeneic model, Compound 1 and 10 Gy irradiation): 70% | tumour size response compared to other combinations (SCC-15 tumours [2]; xenogeneic model, Compound 1 combined with irradiation): significant and durable reduction in tumour size | duration of treatment response (SCC-15 tumours [2]; xenogeneic model, Compound 1 monotherapy): 11 days | duration of treatment response (SCC-15 tumours [2]; xenogeneic model, Compound 1 with 5 Gy irradiation): 51.5 days | duration of treatment response (SCC-15 tumours [2]; xenogeneic model, Compound 1 with 10 Gy irradiation): 111 days | improvement of duration of treatment response over monotherapy (SCC-15 tumours [2]; xenogeneic model, Compound 1 with irradiation, either 5 Gy or 10 Gy): at least 4.6 × | Median Survival (UV-13-1 tumours; [8]): 16.5 days | Median Survival (UV-13-1 tumours; [9]): 23.5 days | efficacy versus IP cisplatin alone (UV-13-1 tumours; syngeneic model, 5 μg and 10 μg Compound 1 IT with saline): more efficacious than IP cisplatin alone | Combination Index at IC50, Irradiation (A431 cells; Compound 1 concentration 10 μM): 0.33 | Combination Index at IC50, Irradiation (A431 cells; Compound 1 concentration 50 μM): 0.41 | Combination Index at IC50, Irradiation (A431 cells; Compound 1 concentration 100 μM): 0.12 | Combination Index at IC50, Irradiation (A431 cells; Compound 1 concentration 200 μM): 0.08 | cell death compared to Compound 1 alone (A431 cells; Compound 1 with any concentration of irradiation): significant increase in cell death | relationship by Chou-Talalay combination index method (A431 cells; Compound 1 with irradiation): synergistic

COc1cccc2c1C(=O)c1c(O)c3c(c(O)c1C2=O)C[C@@](O)(C(=O)CO)C[C@@H]3O[C@H]1C[C@H](N)[C@H](O)[C@H](C)O1 [doxorubicin, reference compound]
effect on tumour growth (B16-F10-OVA tumours; [11]): no effect on tumour growth | effect on tumour growth and survival (LLC tumours; [11]): minor effect on slowing tumour growth and prolonging survival

— patent US20250134847A1, “COMBINATION THERAPIES” (QBIOTICS PTY LTD, priority 2022, published 2025)
